From article PMC7828111, “In Search for Multi-Target Ligands as Potential Agents for Diabetes Mellitus and Its Complications—A Structure-Activity Relationship Study on Inhibitors of Aldose Reductase and Protein Tyrosine Phosphatase 1B” (Molecules, 2021)

Legend:
human recombinant AR [1] = target: T1, human recombinant AR (Homo sapiens, UniProt P15121); assay: Inhibition of human recombinant AR, L-idose as substrate (NADPH oxidation at 340 nm); format: biochemical; conditions: human recombinant AR, 2 mM L-idose as substrate; mean ± S.E.M
T1 construct: made in house; host or cells: E. coli BL21(DE3)pLysS
Procedure: The human recombinant AR was expressed in BL21(DE3)pLysS E. coli cells and purified to electrophoretic homogeneity as previously described. The purified enzyme (specific activity 5.0 U/mg) was stored at −80 °C in 10 mM sodium phosphate buffer pH 7.0 containing 2 mM dithiothreitol and 30% (w/v) glycerol. AR activity was determined at 37 °C as previously described evaluating the decrease in absorbance at 340 nm linked to NADPH oxidation. […] One unit of enzyme activity is the amount that catalyzes the conversion of 1 μmol of substrate/min in the above assay conditions.
All compounds tested as aldose reductase inhibitors were dissolved in DMSO and added to the assay mixture containing 8 mU of purified AR. The reaction was started by addition of the substrate. The DMSO concentration in all the assays was kept constant at 0.5% (v/v) in order to avoid effects on AR activity.
The IC50 values were determined by nonlinear regression analysis using Prism GraphPad 6.0 fitting experimental data to the following equation:(1) vi/v0= Max−Min/1+( I/IC50)^slope +Min
In the equation, vi/v0, represents the ratio between the activity measured in the presence of the inhibitor and the activity measured in the absence of inhibitor; Max and Min represent the expected maximal and minimal value of the activity and were fixed at 1 and zero, respectively. Slope, which describes the steepness of curve in the transition region, was fixed at −1. For each compound, at least five different concentrations of inhibitor in the triplicate assay were analyzed.

human recombinant AR [2] = target: T1, human recombinant AR; assay: Kinetic analysis of AR inhibition (Lineweaver-Burk and secondary plots); format: biochemical
Procedure: The kinetic analysis of compounds 4a, 4e and 4f was performed by measuring reaction rates with different L-idose concentrations s (S) in the absence and in the presence of different inhibitors concentrations. Data were analyzed by Linewever-Burk plots.

human recombinant PTP1B = target: T2, human recombinant PTP1B (Homo sapiens, UniProt P18031); assay: Kinetic analysis of PTP1B inhibition (Lineweaver-Burk plot); format: biochemical; conditions: pNPP as substrate
T2 sequence (P18031 1-435): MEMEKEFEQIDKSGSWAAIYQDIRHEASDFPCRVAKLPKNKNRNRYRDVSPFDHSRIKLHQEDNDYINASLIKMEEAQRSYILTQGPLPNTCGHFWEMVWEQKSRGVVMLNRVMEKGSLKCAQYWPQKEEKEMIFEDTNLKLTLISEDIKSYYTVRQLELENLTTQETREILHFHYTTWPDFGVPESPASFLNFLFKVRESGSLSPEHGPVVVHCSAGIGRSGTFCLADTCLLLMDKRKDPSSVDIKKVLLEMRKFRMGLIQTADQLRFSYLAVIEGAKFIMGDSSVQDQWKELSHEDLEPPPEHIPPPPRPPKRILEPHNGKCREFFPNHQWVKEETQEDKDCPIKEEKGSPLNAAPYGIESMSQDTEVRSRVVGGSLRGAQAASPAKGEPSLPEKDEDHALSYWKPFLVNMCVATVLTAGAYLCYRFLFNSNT
Procedure: Kinetic analyses were carried out to dissect action mechanism of compound 4e and 4f. Briefly, the main kinetic parameters, Km and Vmax, were calculated measuring the initial hydrolysis rate of PTP1B in the presence of increasing pNPP concentration (seven different concentrations in the 0.5–25 mM range). All assays were carried out in duplicate. Data obtained were fitted using the Michaelis-Menten equation. To evaluate the action mechanism of inhibitors, we studied the dependence of Km and Vmax from inhibitors concentration, using three different inhibitor concentrations, at least. Data obtained were then analysed by double reciprocal plot (Lineweaver-Burk plot).

human recombinant AR [3] = target: T1, human recombinant AR; assay: Reversibility of AR inhibition (dialysis); format: biochemical
Procedure: In order to evaluate the reversibility of the inhibitory action, 8 mU of purified AR were assayed in the presence of 5 μM of compounds 4a, 4e and 4f. In these conditions less than 15% of the enzyme activity was measured in the presence of 2 mM L-idose as substrate. The mixture was then extensively dialysed on Amicon ultrafiltration membrane (cut off 10 KDa) against 10 mM sodium phosphate buffer, pH 7.0. After dialysis, the enzyme activity was again measured as above and compared to that of a mixture in the absence of inhibitor and treated in the same conditions.

[4] = tested on: insulin receptor (IRβ) phosphorylation in C2C12 cells; assay: Insulin receptor phosphorylation in C2C12 cells (western blot); format: cell-based, murine
Procedure: The insulin mimetic/sensitizing activity of compound 4f was evaluated on both HepG2 and C2C12 cells. Starved HepG2 and C2C12 cells were incubated in the presence of compound 4f (25 μM) for 90 min and after stimulated or not with insulin (10 nM). Then, cells extracts were analysed to evaluate phosphorylation levels of the insulin receptor.
HepG2 and differentiated C2C12 cells were starved for 24 h and then incubated in the presence of compound 4f (25 μM, final concentration) for 90 min. After this time, cells were washed with PBS and then stimulated or not with 10 nM insulin for 30 min. Then, cells were lysed and cellular proteins separated on a 12% SDS-PAGE. After electrophoresis, cellular proteins were transferred on a PVDF membrane by western blot technique and then probed against antibodies able to specifically recognize insulin receptor (I2033 Sigma Aldrich) or phosphorylated form of IR (MABS65, Sigma-Aldrich). Sample loading was evaluated probing PVDF membrane with anti-actin antibodies (ABT1485 Sigma Aldrich).

O=C(O)CCN1C(=O)/C(=C/c2ccc(OCCc3ccccc3)cc2)SC1=S [4f, 3-[(5Z)-4-Oxo-{5-[4-(2-phenylethoxy)phenyl]methylidene}-2-thioxothiazolidin-3-yl]propanoic acid]
IC50 (human recombinant AR [1]): 5.3 ± 0.4 µM | AR Ki relative to K′i (human recombinant AR [2]; Ki higher than K′i): at least ten-fold higher | AR K′i (apparent dissociation constant, EIS complex) (human recombinant AR [2]; L-idose as substrate): 2.9 ± 0.12 µM | Mechanism of AR inhibition (human recombinant AR [2]; L-idose as substrate): uncompetitive inhibitors | Ki (human recombinant AR [2]; L-idose as substrate, read-out: AR Ki (apparent dissociation constant)): > 30 µM | Mechanism of PTP1B inhibition (human recombinant PTP1B): mixed-type non-competitive inhibitors | PTP1B K′i (apparent dissociation constant, EIS complex) (human recombinant PTP1B): 2.3 ± 0.1 µM | Ki (human recombinant PTP1B; read-out: PTP1B Ki (apparent dissociation constant)): 0.9 ± 0.1 µM | AR enzyme activity recovered after removal of the inhibitor upon extensive dialysis (human recombinant AR [3]; 5 μM compound before dialysis): more than 90% | AR enzyme activity measured in the presence of compound (human recombinant AR [3]; 5 μM compound, 2 mM L-idose, before dialysis): less than 15% | IRβ phosphorylation levels after insulin versus insulin alone ([4]; C2C12, 25 μM for 90 min, then 10 nM insulin 30 min): significantly higher | Effect on basal IR phosphorylation levels ([4]; C2C12, 25 μM, 90 min, no insulin): did not appreciably affect
